Measured values reported in article doi:10.64898/2025.12.10.692519v1 (biorxiv, 2025).

Assays:
Test in all cases: cells
REC-1 = conditions: Homo sapiens, Rec1, 144 h, read-out: Unesbulin (PTC-596)
PANC-1 = conditions: Homo sapiens, PANC-1, 144 h, read-out: Unesbulin (PTC-596)
HUT-78 = conditions: Homo sapiens, HuT78, 144 h, read-out: Unesbulin (PTC-596)
CCRF-CEM = conditions: Homo sapiens, CCRF-CEM, 144 h, read-out: Unesbulin (PTC-596)
Karpas-299 = conditions: Homo sapiens, KARPAS-299, 144 h, read-out: Unesbulin (PTC-596)
U-118 = conditions: 144 h, read-out: Unesbulin (PTC-596)
WEHI-164 = conditions: Mus musculus, WEHI-164, 144 h, read-out: Unesbulin (PTC-596)
HL-60 = conditions: Homo sapiens, HL-60, 144 h, read-out: Unesbulin (PTC-596)
U2OS = conditions: Homo sapiens, U2OS, 144 h, read-out: Unesbulin (PTC-596)
A4573 = conditions: A4573, 144 h, read-out: Unesbulin (PTC-596)
SW-872 = conditions: Homo sapiens, SW872, 144 h, read-out: Unesbulin (PTC-596)
PLC-PRF5 = conditions: Homo sapiens, PLC-PRF-5, 144 h, read-out: Unesbulin (PTC-596)
HGC-27 = conditions: Homo sapiens, HGC-27, 144 h, read-out: Unesbulin (PTC-596)
HRT-18 = conditions: Homo sapiens, HRT-18, 144 h, read-out: Unesbulin (PTC-596)
A-549 = conditions: Homo sapiens, A549, 144 h, read-out: Unesbulin (PTC-596)
U87-MG = conditions: Homo sapiens, U-87 MG, 144 h, read-out: Unesbulin (PTC-596)
H-1299 = conditions: Homo sapiens, NCI-H1299, 144 h, read-out: Unesbulin (PTC-596)
DU-145 = conditions: Homo sapiens, DU-145, 144 h, read-out: Unesbulin (PTC-596)
SK-N-MC = conditions: Homo sapiens, SK-N-MC, 144 h, read-out: Unesbulin (PTC-596)
HEP-2 = conditions: Homo sapiens, HEp-2, 144 h, read-out: Unesbulin (PTC-596)
NALM-6 = conditions: Homo sapiens, NALM-6, 144 h, read-out: Unesbulin (PTC-596)
CMK = system: CMK; design: species or system CHRF; conditions: Homo sapiens, 72 h, read-out: Doxorubicin (IC50 nM)
MESSA = system: MESSA; design: species or system MES-SA/Mx2; conditions: Homo sapiens, MES-SA, read-out: MES-SA
CHRF = system: CHRF; design: species or system CMK; conditions: 72 h, read-out: Doxorubicin (IC50 nM)

Compound: Cc1nc2ccc(F)cc2n1-c1nc(N)c(F)c(Nc2ccc(C(F)(F)F)cc2)n1 [Unesbulin]
- IC50 (REC-1): 17 nM
- IC50 (PANC-1): 21 nM
- IC50 (HUT-78): 20 nM
- IC50 (CCRF-CEM): 27 nM
- IC50 (Karpas-299): 34 nM
- IC50 (U-118): 33 nM
- IC50 (WEHI-164): 31 nM
- IC50 (HL-60): 48 nM
- IC50 (U2OS): 12 nM
- IC50 (A4573): 21 nM
- IC50 (SW-872): 18 nM
- IC50 (PLC-PRF5): 25 nM
- IC50 (HGC-27): 9 nM
- IC50 (HRT-18): 11 nM
- IC50 (A-549): 13 nM
- IC50 (U87-MG): 11 nM
- IC50 (H-1299): 5 nM
- IC50 (DU-145): 17 nM
- IC50 (SK-N-MC): 14 nM
- IC50 (HEP-2): 10 nM
- IC50 (NALM-6): 30 nM

Compound: COc1cccc2c1C(=O)c1c(O)c3c(c(O)c1C2=O)C[C@@](O)(C(=O)CO)C[C@@H]3O[C@H]1C[C@H](N)[C@H](O)[C@H](C)O1 [doxorubicin]
- IC50 (CMK): 844 nM
- IC50 (MESSA): 71 ± 56 nM
- IC50 (CHRF): 681 nM
